Tests used:
[1] = test system: stomach pacemaker potentials; experiment: MEA recording of pacemaker potentials (slow waves), isolated stomach; type: cell-based, Suncus murinus
Method: (§1) Pacemaker potentials were recorded extracellularly on a 60-channel MEA system using full-thickness GI segments isolated from Suncus murinus. Basic slow-wave parameters, including frequency, amplitude, slope, period, and power partitions, were derived. Signal regularity was also evaluated using detrended fluctuation analysis and sample entropy analysis.
(§2) Electrical recordings were taken after the animals were euthanised by carbon dioxide asphyxiation. […] The mesentery was removed, and the lumen contents were flushed with Krebs' medium. Segments (−1 cm) of duodenum, ileum, and colon were then isolated, but the stomach was kept intact. All tissue segments and the entire stomach were incubated in Krebs' medium containing nifedipine (1 μM; Sigma Aldrich, St Louis, MO, USA) for 15 min to inhibit smooth muscle activity. Pacemaker potentials were recorded using an MEA platform (MEA1060 1200×; Multichannel Systems, Reutlingen, Germany) as previously described. Briefly, tissues were placed onto the electrode field of an MEA chip (60-channel, 8×8 configuration, 3D-tip-shaped electrodes with a height of […] and an inter-electrode distance of 200 μm; Ayanda Biosystems SA, Lausanne, Switzerland). Intestinal segments were aligned horizontally to the recording electrode field, while the stomach was oriented with the antrum facing the recording electrode field. The chamber temperature was maintained at 37° C. and the sampling frequency was 1 kHz. […] All data were recorded and saved using MC_Rack (v 4.6.2, Multichannel Systems).
(§3) Data analysis included basic slow-wave feature extraction using a custom automated program. […] The time point of drug administration was automatically identified based on the signal disturbance. The period of signal disturbance (20 s before and 40 s after the peak of the disturbance) was excluded from the analysis. Data were filtered using a passband between 0.1 Hz and 1 Hz and a stopband between 0.01 Hz and 2 Hz. The basic slow-wave features extracted were similar to those extracted in the inventors' previous studies. However, instead of using several templates and scripts written in Microsoft Excel and Spike 2, a one-step automatic and blinded MATLAB programme was used for data analysis. There were four major changes to the data analysis process as compared to the inventors' previous studies. First, auto-identification of the drug disturbance time point was used, rather than manual identification. Second, standardised signal filters were built in MATLAB to match the entire data analysis pipeline. […] Frequency partitioning was performed by segmenting the power spectrum of 0-50 cpm into the following four segments: brady-rhythm (within the range 2-[DF−1] cpm), normal-rhythm ([DF±1] cpm), tachy-rhythm (within the range [DF+1]-40 cpm), and out-of-range frequencies (<2 cpm and >40 cpm). Third, waveforms were identified using the MATLAB ‘findpeaks’ function, with a minimum peak height of […] at baseline and […] after drug treatment, with a step time of 5.4 s for the intestine and 12 s for the stomach. The average peak-to-peak amplitude, slope, and period were derived for all detected waveforms. Fourth, propagation velocity was derived using phase-difference measurements, based on the auto-select seed electrode with the highest percentage of normal rhythms.
(§4) Dominant activation pattern identification included a phase-based analysis performed as previously described (Liu et al., 2021). Briefly, high-frequency spikes with amplitudes greater than […] were masked. Continuous frequencies were identified using continuous wavelet transformation, and the transformed data were used to plot spectrograms. […] High quality data were subjected to Hilbert transformation to identify the phase and frequency of the signals. Individual activation times were clustered using k-means clustering every 20 s and major activation patterns were grouped using a structural similarity index.

[2] = test system: duodenum pacemaker potentials; experiment: MEA recording of pacemaker potentials (slow waves), isolated duodenum; type: cell-based, Suncus murinus; settings: for amplitude of slow waves: duodenum
Method: as §1, §2, §3, §4

[3] = duodenal tissues, 0.1-100 μM, p>0.05, n=5-9

SMILES: Cl.NCCc1ccc(O)c(O)c1 [dopamine, 3-Hydroxytyramine hydrochloride]
- representative spectrogram, effect ([1]; 100 μM): reduced the DP of the DF
- wave fronts counted in representative spatio-temporal map (1 min) ([1]; 100 μM, 9 before treatment): ~10
- DFA fluctuation function (smaller scale 3-25) ([1]; 100 μM, baseline 2.36±0.08, p<0.05, n=7): 2.27±0.16
- number of groups of activation patterns ([1]; 100 μM, baseline 4.3±1.0, p<0.05, n=8): 5.3±1.0
- average frequency (AF) ([1]; 100 μM, baseline 9.8±1.2, p<0.05, n=8): 11.8±1.8 cpm
- percentage of tachy-rhythms ([1]; 100 μM, baseline 36.1±12.8, p<0.05, n=8): 60.2±15.4%
- percentage of normal rhythms ([1]; 100 μM, baseline 55.1±7.2, p<0.01, n=8): 23.6±13.1%
- dominant power (DP) of slow waves ([1]; 100 μM, baseline 888.0±691.5, p<0.05, n=8): 253.2±416.1 μV^2
- percentage of dominant patterns (based on post-treatment data, FIG. 3E), change vs baseline ([1]; 100 μM, p>0.05, n=4): No significant differences
- percentage of dominant baseline activation patterns, change vs baseline ([1]; 100 μM, p>0.05, n=4, FIG. 3D): No significant differences
- average SampEn (larger scale 6-50), effect ([1]; 100 uM, p>0.05, n=7): did not change
- average SampEn (smaller scale 1-5), effect ([1]; 100 uM, p>0.05, n=7): did not change
- DFA fluctuation function (larger scale 26-46), effect ([1]; 100 μM, p>0.05, n=7): did not change
- amplitude of slow waves, change vs baseline ([1]; 100 μM, p>0.05, n=8): No significant differences
- dominant frequency (DF), change vs baseline ([1]; 100 μM, p>0.05, n=8): No significant differences
- propagation velocities, effect ([1]; 100 μM, p>0.05, n=8): did not affect
- slope of waveforms, change vs baseline ([1]; 100 μM, p>0.05, n=8): No significant differences
- waveform period, change vs baseline ([1]; 100 μM, p>0.05, n=8): No significant differences
- wave propagation in video (FIG. 11B), effect ([1]; 100 M): wave propagation was inhibited, and amplitudes were reduced
- waveform period ([2]; duodenal tissues, 100 nM, baseline 2.52±0.21, p<0.05, n=7): 3.27 ± 0.47 s
- DFA fluctuation function (smaller scale 3-25) ([2]; duodenal tissues, 100 nM, baseline 2.65±0.08, p<0.01, n=6): 2.51±0.05
- percentage of tachy-rhythms ([2]; duodenal tissues, 100 nM, baseline 12.5±5.7, p<0.05, n=7): 2.1±0.7%
- percentage of dominant baseline activation patterns, second pattern ([2]; duodenal tissues, 100 nM, baseline 23.3±5.7, p<0.05, n=7): 8.4±11.2%
- average frequency (AF) ([2]; duodenal tissues, 100 nM, baseline 24.1±2.0, p<0.05, n=7): 20.9±0.7 cpm
- dominant frequency (DF) of slow waves ([2]; duodenal tissues, 100 nM, baseline 27.1±2.2, p<0.05, n=7): 24.9±1.2 cpm
- percentage of dominant baseline activation patterns, first pattern ([2]; duodenal tissues, 100 nM, baseline 32.3±11.8, p<0.01, n=7): 11.1±13.0%
- percentage of brady-rhythms ([2]; duodenal tissues, 100 nM, baseline 35.7±10.3, p<0.0001, n=7): 87.2±7.7%
- percentage of normal rhythms ([2]; duodenal tissues, 100 nM, baseline 46.1±11.2, p<0.001, n=7): 4.8±4.6%
- slope of waveforms ([2]; duodenal tissues, 100 nM, baseline 321.7±95.5, p<0.01, n=7): 166.9±57.7 μV s^−1
- DFA fluctuation function (larger scale 26-46) ([2]; duodenal tissues, 100 nM, baseline […], p<0.01, n=6): 1.98±0.11
- DFA fluctuation function (larger scale 26-46) ([2]; duodenal tissues, 1 μM, baseline 1.74±0.32, p<0.05, n=7): 1.63±0.38
- number of groups of activation patterns ([2]; duodenal tissues, 1 μM, baseline 6.2±1.0, p<0.05, n=6): 6.8±1.0
- percentage of brady-rhythms ([2]; duodenal tissues, 1 μM, baseline 25.8±12.3, p<0.05, n=6): 53.7±26.6%
- percentage of dominant baseline activation patterns, first pattern ([2]; duodenal tissues, 1 μM, baseline 33.7±13.1, p<0.05, n=6): 12.8±9.4%
- representative spectrogram, effect on DF ([2]; duodenal tissues, 10 μM): slightly shifted towards a lower frequency
- wave fronts counted in representative spatio-temporal map (1 min) ([2]; duodenal tissues, 10 μM, 30 before treatment): 27
- average SampEn (smaller scale 1-5) ([2]; duodenal tissues, 10 μM, baseline 0.58±0.05, p<0.05, n=7): 0.60±0.04
- number of groups of activation patterns ([2]; duodenal tissues, 10 μM, baseline 5.9±0.7, p<0.05, n=9): 6.4±0.5
- percentage of dominant patterns (based on post-treatment data, FIG. 3E), second pattern ([2]; duodenal tissues, 10 μM, baseline 10.2±9.1, p<0.05, n=5): 18.5±2.3%
- percentage of normal rhythms ([2]; duodenal tissues, 10 μM, baseline 52.4±14.7, p<0.05, n=9): 7.8±6.4%
- slope of waveforms ([2]; duodenal tissues, 10 μM, baseline 202.4±50.6, p<0.05, n=9): 153.9±47.7 μV s^−1
- DFA fluctuation function (larger scale 26-46) ([2]; duodenal tissues, 100 μM, baseline 1.46±0.29, p<0.05, n=9): 1.36±0.31
- waveform period ([2]; duodenal tissues, 100 μM, baseline 2.44±0.72, p<0.05, n=5): 3.26 ± 1.29 s
- percentage of dominant baseline activation patterns, third pattern ([2]; duodenal tissues, 100 μM, baseline 15.2±2.1, p<0.05, n=4): 5.9±3.6%
- percentage of dominant patterns (based on post-treatment data, FIG. 3E), third pattern ([2]; duodenal tissues, 100 μM, baseline 20.3±10.8, p<0.05, n=4): 7.5±5.8%
- average frequency (AF) ([2]; duodenal tissues, 100 μM, baseline 25.1±3.7, p<0.05, n=5): 22.2±5.4 cpm
- dominant frequency (DF) of slow waves ([2]; duodenal tissues, 100 μM, baseline 28.6±4.1, p<0.05, n=5): 26.3±5.2 cpm
- percentage of dominant baseline activation patterns, first pattern ([2]; duodenal tissues, 100 μM, baseline 29.3±5.5, p<0.01, n=4): 7.0±7.0%
- percentage of brady-rhythms ([2]; duodenal tissues, 100 μM, baseline 43.3±11.6, p<0.05, n=5): 68.6±29.0%
- slope of waveforms ([2]; duodenal tissues, 100 μM, baseline 322.2±108.6, p<0.01, n=5): 182.5±61.7 μV s^−1
- percentage of dominant baseline activation patterns, second pattern ([2]; duodenal tissues, 100 μM, baseline […], p<0.05, n=4): 7.4±4.1%
- dominant power (DP), change vs baseline [2, 3]: No significant differences
- propagation velocities, effect [2, 3]: did not affect
- average SampEn (larger scale 6-50), effect ([2]; duodenal tissues, 0.1-100 μM, p>0.05, n=6-9): did not change
- DFA fluctuation function (smaller scale 3-25) ([2]; duodenal tissues, 100 M, baseline 2.26±0.16, p<0.05, n=9): 2.18±0.16
- percentage of tachy-rhythms ([2]; duodenal tissues, 100 M, baseline 11.0±5.2, p<0.05, n=5): 5.4±4.9%
- amplitude of slow waves ([2]; 100 nM, baseline 193.0±54.9, p<0.01, n=7): 114.1±37.7 μV
- amplitude of slow waves ([2]; 10 μM, baseline 117.6±24.2, p<0.05, n=9): 97.4±13.7 μV
- amplitude of slow waves ([2]; 100 μM, baseline 199.3±60.5, p<0.01, n=5): 121.1±27.3 μV
